Results reported in US11597919B2, “Systems, methods and compositions for sequence manipulation with optimized functional CRISPR-Cas systems” (The Broad Institute, Inc., priority 2013, dated 2023).

What was measured:
Factor VII = settings: LNP siRNA systems containing these lipids; cited from earlier work
[1] = tested on: genomic DNA in human embryonic kidney 293FT (HEK293FT) cells; test: SURVEYOR nuclease assay of Cas9 and sgRNA mutants (Example 12); format: cell-based
Experimental: Cells were transfected using Lipofectamine 2000 (Life Technologies) at 70-80% confluency following the manufacturer's recommended protocol.
Genomic DNA was extracted using the QuickExtract DNA Extraction Solution (Epicentre) following the manufacturer's protocol.
400 ng total of the purified PCR products were mixed with 2 μl 10× Taq DNA Polymerase PCR buffer (Enzymatics) and ultrapure water to a final volume of 20 μl, and subjected to a re-annealing process to enable heteroduplex formation: 95° C. for 10 min, 95° C. to 85° C. ramping at −2° C./s, 85° C. to 25° C. at −0.25° C./s, and 25° C. hold for 1 min. After re-annealing, products were treated with SURVEYOR nuclease and SURVEYOR enhancer S (Transgenomics) following the manufacturer's recommended protocol, and analyzed on 4-20% Novex TBE poly-acrylamide gels (Life Technologies). Gels were stained with SYBR Gold DNA stain (Life Technologies) for 30 min and imaged with a Gel Doc gel imaging system (Bio-rad). Quantification was based on relative band intensities. Indel percentage was determined by the formula, 100×(1−(1−(b+c)/(a+b+c))^1/2), where a is the integrated intensity of the undigested PCR product, and b and c are the integrated intensities of each cleavage product.

1,2-dilinoleyloxy-keto-N,N-dimethyl-3-aminopropane [DLinKDMA]
gene silencing potency series (Factor VII): DLinKC2-DMA>DLinKDMA>DLinDMA>>DLinDAP

CCCCC/C=C\C/C=C\CCCCCCCC(=O)OCC(CN(C)C)OC(=O)CCCCCCC/C=C\C/C=C\CCCCC (stereo not drawn) [DLinDAP, 1,2-dilineoyl-3-dimethylammonium-propane]
gene silencing potency series (Factor VII): DLinKC2-DMA>DLinKDMA>DLinDMA>>DLinDAP

CCCCC/C=C\C/C=C\CCCCCCCCOCC(CN(C)C)OCCCCCCCC/C=C\C/C=C\CCCCC (stereo not drawn) [DLinDMA, 1,2-dilinoleyloxy-3-N,N-dimethylaminopropane]
gene silencing potency series (Factor VII): DLinKC2-DMA>DLinKDMA>DLinDMA>>DLinDAP

CCCCC/C=C\C/C=C\CCCCCCCCC1(CCCCCCCC/C=C\C/C=C\CCCCC)OCC(CCN(C)C)O1 (stereo not drawn) [DLinKC2-DMA, 1,2-dilinoleyl-4-(2-dimethylaminoethyl)-[1,3]-dioxolane]
gene silencing potency series (Factor VII): DLinKC2-DMA>DLinKDMA>DLinDMA>>DLinDAP

B1: Cas9 (A175-307): Cas9 mutant lacking the REC2 domain, SEQ ID NO: 116 (protein)
chain: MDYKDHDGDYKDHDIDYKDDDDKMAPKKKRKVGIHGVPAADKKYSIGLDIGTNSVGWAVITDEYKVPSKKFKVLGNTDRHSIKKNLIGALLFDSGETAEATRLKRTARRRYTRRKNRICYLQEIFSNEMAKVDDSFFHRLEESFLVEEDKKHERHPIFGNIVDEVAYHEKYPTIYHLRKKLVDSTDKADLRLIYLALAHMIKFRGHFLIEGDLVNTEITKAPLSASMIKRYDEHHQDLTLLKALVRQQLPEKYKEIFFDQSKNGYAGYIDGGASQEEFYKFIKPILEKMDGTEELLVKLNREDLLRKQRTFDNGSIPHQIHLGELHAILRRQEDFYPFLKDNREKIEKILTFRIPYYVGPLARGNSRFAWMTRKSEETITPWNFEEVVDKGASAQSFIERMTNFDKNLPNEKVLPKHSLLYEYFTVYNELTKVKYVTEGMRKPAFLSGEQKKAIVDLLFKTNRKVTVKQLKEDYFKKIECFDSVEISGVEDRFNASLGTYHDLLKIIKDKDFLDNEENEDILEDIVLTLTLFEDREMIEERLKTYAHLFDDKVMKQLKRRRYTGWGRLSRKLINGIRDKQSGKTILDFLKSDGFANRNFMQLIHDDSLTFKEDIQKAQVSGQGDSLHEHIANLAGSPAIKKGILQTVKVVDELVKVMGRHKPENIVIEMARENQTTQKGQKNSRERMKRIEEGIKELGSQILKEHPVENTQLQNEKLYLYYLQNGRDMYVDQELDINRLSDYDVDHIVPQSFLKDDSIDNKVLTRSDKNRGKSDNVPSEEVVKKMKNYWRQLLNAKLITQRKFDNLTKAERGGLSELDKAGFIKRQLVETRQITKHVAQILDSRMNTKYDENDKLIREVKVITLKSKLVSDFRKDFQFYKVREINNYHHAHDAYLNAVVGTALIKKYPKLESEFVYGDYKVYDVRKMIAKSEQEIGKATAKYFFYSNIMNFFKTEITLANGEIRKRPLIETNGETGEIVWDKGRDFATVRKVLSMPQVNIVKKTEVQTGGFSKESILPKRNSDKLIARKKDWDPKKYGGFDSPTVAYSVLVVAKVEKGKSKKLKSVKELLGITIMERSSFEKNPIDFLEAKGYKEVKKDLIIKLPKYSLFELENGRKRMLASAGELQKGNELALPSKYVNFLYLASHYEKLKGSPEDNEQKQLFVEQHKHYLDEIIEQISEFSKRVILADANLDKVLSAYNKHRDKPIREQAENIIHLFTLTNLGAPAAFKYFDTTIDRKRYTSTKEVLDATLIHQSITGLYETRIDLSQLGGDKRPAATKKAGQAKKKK
activity relative to wild-type Cas9 ([1]; indel, SURVEYOR, n=3): ~50%

B2: A1099-1368: SpCas9 with deletion of the PI domain, SEQ ID NO: 118 (protein)
chain: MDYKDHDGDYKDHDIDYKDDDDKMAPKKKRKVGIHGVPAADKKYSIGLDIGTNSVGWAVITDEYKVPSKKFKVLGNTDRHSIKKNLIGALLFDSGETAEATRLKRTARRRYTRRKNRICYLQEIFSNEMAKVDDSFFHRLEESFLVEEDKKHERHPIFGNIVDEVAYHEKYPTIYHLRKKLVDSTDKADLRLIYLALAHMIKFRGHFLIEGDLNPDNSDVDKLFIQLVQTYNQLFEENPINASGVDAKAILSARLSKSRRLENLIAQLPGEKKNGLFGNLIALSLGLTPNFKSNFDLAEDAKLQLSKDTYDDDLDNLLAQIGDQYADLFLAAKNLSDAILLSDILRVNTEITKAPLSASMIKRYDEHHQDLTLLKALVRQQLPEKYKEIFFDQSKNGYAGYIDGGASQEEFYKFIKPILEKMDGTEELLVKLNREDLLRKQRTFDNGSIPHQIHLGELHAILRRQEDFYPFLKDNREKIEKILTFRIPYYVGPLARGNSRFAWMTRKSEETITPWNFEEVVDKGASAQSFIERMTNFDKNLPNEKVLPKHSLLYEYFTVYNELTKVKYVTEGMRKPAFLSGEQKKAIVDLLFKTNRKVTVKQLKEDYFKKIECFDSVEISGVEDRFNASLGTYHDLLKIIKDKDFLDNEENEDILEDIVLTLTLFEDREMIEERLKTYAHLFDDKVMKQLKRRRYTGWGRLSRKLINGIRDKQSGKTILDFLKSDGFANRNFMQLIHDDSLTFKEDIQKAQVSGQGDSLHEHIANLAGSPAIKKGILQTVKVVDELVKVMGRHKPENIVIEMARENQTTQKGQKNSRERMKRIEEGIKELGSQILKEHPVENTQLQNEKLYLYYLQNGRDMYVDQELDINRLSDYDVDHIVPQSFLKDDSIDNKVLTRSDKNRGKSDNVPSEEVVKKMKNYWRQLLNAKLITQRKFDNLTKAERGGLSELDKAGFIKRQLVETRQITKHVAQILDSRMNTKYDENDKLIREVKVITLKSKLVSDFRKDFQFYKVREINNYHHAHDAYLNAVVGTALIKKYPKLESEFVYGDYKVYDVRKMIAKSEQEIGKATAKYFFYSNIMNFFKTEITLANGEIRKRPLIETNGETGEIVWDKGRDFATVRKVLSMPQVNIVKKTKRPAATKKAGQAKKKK
DNA cleavage activity ([1]; Cas9 truncation and point mutants): abolished the cleavage activity
